Source: patent publication US5977144A (priority 1997, dated 1999)
Read-outs that look alike come from different tables or passages of the source.

Legend:
[1] = target: alpha7 receptor (high affinity alpha-bungarotoxin binding, rat brain membranes) (Rattus norvegicus, UniProt Q05941); experiment: biochemical
[2] = target: rat alpha4beta2 receptor (Rattus norvegicus, UniProt P09483+P12390); experiment: Activation of alpha4beta2 receptors expressed in Xenopus oocytes; assay type: cell-based
Procedure: FIG. 14A. Responses of α4β2 ACHR to 3-CA, 2-MeOCA or 4-MeOCA. Concentration-response relationships for the peak agonist activated currents of oocytes injected with RNA coding for rat α4β2 subunits. Responses are first expressed relative to the response to 10 μM ACh, applied 5 min before drug-application, then normalized to the maximum response obtainable with ACh so that a response of 1 represents full efficacy. The ratio between 10 μM ACh and maximum ACh response was determined in separate experiments.
(§1) Oocytes were prepared and recordings made as described previously (de Fiebre, et al., 1995). Frogs were anesthetized by submersion in 0.1% (3)-aminobenzoic acid ethyl ester and several lobes of the ovary surgically removed through a small incision in the abdomen wall. Oocytes were freed from the follicle cells by treatment with collagenase (in calcium-free Barth's solution: 88 mM NaCl, 1 mM KCl, 15 mM Hepes pH 7.6, 0.33 mM MgSO4, 0.1 mg/ml gentamicin sulfate) for 2 hr at room temperature and Stage 5 oocytes were isolated. Oocytes were rinsed and stored at 18° C. in Barth's saline (88 mM NaCl, 1 mM KCl, 15 mM Hepes pH 7.6, 0.3 mM Ca(NO3)2, 0.41 mM CaCl2, 0.82 mM MgSO4, 0.1 mg/ml gentamicin sulfate) before and after microinjection with RNA. Microinjection was conducted with a Drummond Scientific "Nanoject Variable" automatic injector. Oocytes were injected with a 50 nl solution of specified rat nicotinic subunit mRNA species (2-10 mg/ml; derived from the cDNA containing HIP 306 plasmid kindly provided by Dr. Jim Boulter, Salk Institute) and incubated 2-7 days at 18° C. before electrophysiological recording. electrophysiological recordings, oocytes were perfused in a Warner Instruments RC-8 recording chamber with a perfusion solution containing 115 mM NaCl, 2.5 mM KCl, 10 mM Hepes pH 7.2, 1.8 mM CaCl2 and 1 μM atropine to block muscarinic responses. Perfusion was continuous at a rate of 10 ml/min. Drags were diluted in perfusion solution and applied using a solenoid valve to switch from perfusion to drug solutions. Current responses to drug administration were studied under two electrode voltage clamp at a holding potential of -70 mV using a Dagan Corp. TEV-200 voltage clamp connected to a 386-SX IBM computer using a TL-1 DMA interface (Axon Instruments). Micropipettes were filled with 3 M KCl and had resistances of 0.5-2 MOhms. Drug responses are analyzed with PClamp software (Axon Instruments). Oocytes with resting potentials of less than -30 mV were rejected.

[3] = target: T1, rat alpha7 receptor (Rattus norvegicus, UniProt Q05941); experiment: cell-based; parameters: Oocytes Antagonist: unit not given here; conditions: for Oocytes Antagonist: Table 4
T1 sequence (Q05941 23-502): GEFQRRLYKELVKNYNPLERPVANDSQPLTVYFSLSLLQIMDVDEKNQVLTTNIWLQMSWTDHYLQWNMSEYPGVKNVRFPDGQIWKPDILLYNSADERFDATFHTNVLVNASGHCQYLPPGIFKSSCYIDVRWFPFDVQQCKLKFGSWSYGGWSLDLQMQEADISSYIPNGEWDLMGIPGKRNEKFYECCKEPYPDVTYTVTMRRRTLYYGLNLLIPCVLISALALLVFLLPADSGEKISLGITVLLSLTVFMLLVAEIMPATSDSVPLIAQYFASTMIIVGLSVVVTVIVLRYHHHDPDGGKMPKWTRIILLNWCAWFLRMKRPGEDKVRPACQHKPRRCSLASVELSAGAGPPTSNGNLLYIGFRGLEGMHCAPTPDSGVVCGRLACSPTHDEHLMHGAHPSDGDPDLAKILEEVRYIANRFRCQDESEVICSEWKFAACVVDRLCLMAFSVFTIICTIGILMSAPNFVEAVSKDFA
Procedure: FIG. 13B. Effects of chronic injections of DMXB or nicotine on high affinity [^3 H]ACh or [^125 I]α-bungarotoxin (BTX) binding in rat neocortices. Adult male rats were injected with saline vehicle, 1 mg/kg DMXB or 0.2 mg/kg nicotine (NIC) (IP) daily for 2 weeks. At that time, neocortices were removed and assayed for high affinity [^3 H]ACh or [^125 I]α-bungarotoxin binding as described in the text. […] Responses of rat α7 AChR to 3-CA, 2-MeOCA and 4-MeOCA. […] All responses are expressed relative to the oocyte-response to 500 μM ACh applied 5 min prior to the experimental agonist application.
as §1
Antagonist properties subsequent to agonist activity were measured as a decrease in responsiveness to ACh applied 5 min after compound-application, normalized to ACh application instead of the anabaseine-derivative (FIG. 13A AND FIG. 13B).

[4] = target: T1, rat alpha7 receptor; experiment: cell-based
Procedure: FIG. 13A. Effects of chronic injections of DMXB or nicotine on high affinity [^3 H]ACh or [^125 I]α-bungarotoxin (BTX) binding in rat neocortices. Adult male rats were injected with saline vehicle, 1 mg/kg DMXB or 0.2 mg/kg nicotine (NIC) (IP) daily for 2 weeks. At that time, neocortices were removed and assayed for high affinity [^3 H]ACh or [^125 I]α-bungarotoxin binding as described in the text. […] Responses of rat α7 ACHR to 3-CA, 2-MeOCA and 4-MeOCA. Concentration-response relationships for the peak agonist activated currents of oocytes injected with RNA coding for the rat α7 subunit. All responses were initially measured relative to the individual oocyte-response to 500 μM ACh, applied 5 min prior to drug-application. Responses were normalized relative to the maximum response obtainable with ACh so that a response of 1 represents full efficacy. The ratio of 500 μM ACh control response to ACh maximum was taken from Papke et al., 1997.
as §1

[5] = tested on: nucleus basalis lesioned rats; experiment: Passive avoidance behavior in nucleus basalis lesioned rats; assay type: in vivo, rat; conditions: for passive avoidance behavior (in words): nucleus basalis lesioned rats
Procedure: Passive avoidance behavior was measured in nucleus basalis lesioned rats after intraperitoneal (IP) injections of drugs (base weight) or 0.9% saline diluent. For lesions, male 5 month old Sprague Dawley rats were anesthetized with 30 mg/kg sodium pentobarbital (IP) and then infused bilaterally with 1 μl of 5 μg/μl ibotenic acid in phosphate buffered saline, pH 7.4, into the nucleus basalis as described previously (17). Infusion coordinates were anterior 7.0 mm, lateral 2.6 mm and vertical 6.5 mm according to Paxinos and Watson (Paxinos and Watson, 1986).
Following surgery, animals were returned to their individual home cages and fed semi-solid mash made from Purina Rat Chow for several days. One month later, animals were trained in a two chamber passive avoidance paradigm. Fifteen min after IP drug injection, they were placed in the lit compartment, and allowed to enter the dark adjoining chamber. Animals that entered the second chamber received a mild foot shock (0.8 mA) for 1 sec. Rats were tested for latency 24 hr later for up to 5 min; this test also began 15 min after injection. Statistical analyses utilized rank order nonparametric comparisons of latencies.

[6] = Table 4, read-out: Receptor Binding α7
[7] = Table 4, read-out: Oocytes Agonist α4
[8] = Table 4, read-out: Oocytes Agonist α7

alpha7 receptor (high affinity alpha-bungarotoxin binding, rat brain membranes), sequence (Q05941 23-502): as above
rat alpha4beta2 receptor, sequence (P09483 31-630): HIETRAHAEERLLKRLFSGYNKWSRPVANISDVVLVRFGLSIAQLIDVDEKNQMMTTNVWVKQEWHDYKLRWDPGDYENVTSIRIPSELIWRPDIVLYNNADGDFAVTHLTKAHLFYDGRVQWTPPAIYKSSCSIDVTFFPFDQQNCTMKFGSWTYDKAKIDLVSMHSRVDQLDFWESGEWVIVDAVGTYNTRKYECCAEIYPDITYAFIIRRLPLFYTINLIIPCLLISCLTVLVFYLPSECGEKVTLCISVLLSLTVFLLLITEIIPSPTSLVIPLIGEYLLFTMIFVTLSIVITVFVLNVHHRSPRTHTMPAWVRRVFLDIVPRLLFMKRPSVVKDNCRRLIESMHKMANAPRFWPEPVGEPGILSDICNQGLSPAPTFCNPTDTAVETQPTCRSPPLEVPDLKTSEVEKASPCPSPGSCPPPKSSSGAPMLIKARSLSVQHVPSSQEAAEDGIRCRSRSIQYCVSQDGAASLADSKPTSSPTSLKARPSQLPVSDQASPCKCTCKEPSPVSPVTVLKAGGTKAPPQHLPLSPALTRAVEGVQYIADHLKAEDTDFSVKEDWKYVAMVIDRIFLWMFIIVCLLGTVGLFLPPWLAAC
rat alpha4beta2 receptor, sequence (P12390 25-500): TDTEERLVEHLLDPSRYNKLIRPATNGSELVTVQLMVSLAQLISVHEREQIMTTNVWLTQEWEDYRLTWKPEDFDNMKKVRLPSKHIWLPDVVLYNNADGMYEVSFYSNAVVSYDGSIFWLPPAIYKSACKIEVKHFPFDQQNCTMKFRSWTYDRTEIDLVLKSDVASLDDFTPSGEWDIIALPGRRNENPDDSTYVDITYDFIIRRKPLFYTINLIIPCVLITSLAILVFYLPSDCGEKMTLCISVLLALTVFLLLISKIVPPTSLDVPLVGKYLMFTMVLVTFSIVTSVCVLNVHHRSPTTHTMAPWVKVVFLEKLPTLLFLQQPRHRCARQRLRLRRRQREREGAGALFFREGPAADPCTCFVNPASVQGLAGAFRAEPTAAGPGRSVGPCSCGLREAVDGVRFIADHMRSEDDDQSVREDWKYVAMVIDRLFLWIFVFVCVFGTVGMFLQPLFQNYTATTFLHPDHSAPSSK

COc1ccc(/C=C2\CCCN=C2c2cccnc2)c(OC)c1 [DMXB, 3-(2,4-Dimethoxybenzylidene) anabaseine] showed an inhibition at 1 µM [1, 6] of 52%, an inhibition at 1 µM ([1]; concentration of 1 μM (Table 1), read-out: alpha7 binding: % Inhibition of high affinity alphabungarotoxin binding (1 nM)) of 52% and an Emax [2, 7] of less than 1%. For the same compound, the Emax ([2]; read-out: alpha4beta2 activation: response compared to maximal acetylcholine) was less than 1%, the “Oocytes Antagonist” value [3] was “.20” and the Emax [4, 8] was 20%. For the same compound, the Emax ([4]; read-out: alpha7 activation: response, normalized to 500 μM acetylcholine (maximum response)) was 20%.
Work on COc1ccccc1/C=C/C=C1\CCCN=C1c1cccnc1 [2-MeOCA, E,E-3-(2-Methoxycinnamylidene)anabaseine] yielded an inhibition at 1 µM ([1]; 1 μM (Table 2), read-out: alpha7 binding: % inhibition of alphabungarotoxin binding) of 94.9%, an inhibition at 1 µM [1, 6] of 94.9% and an IC50 ([1]; rat brain membranes, read-out: IC50, [125I]α-bungarotoxin binding) of 0.008 µM. For the same compound, the “effective dose-response range, upper end” value ([5]; IP) was “at least 3 mg/kg”, the “passive avoidance behavior (in words)” value ([5]; IP) was “most potent” and the “passive avoidance behavior (in words)” value ([5]; IP, listed as 2MeOCA) was “most potent performance-enhancing agent”. The “passive avoidance behavior (in words)” value ([5]; IP, listed as trans-3(2-methoxy-cinnamylidene) anabaseine) was “less potent than the present compounds”, the “passive avoidance behavior (in words)” value ([5]; IP, listed as trans-3-(2-methoxycinnamylidene) anabaseine) was “high potency” and the minimal effective dose ([5]; Rattus norvegicus, ip, read-out: effective dose-response range, lower end) was less than 0.1 mg/kg. The Emax [2, 7] was 2.2%, the “inhibition of α7 receptors, estimated” value ([3]; 10 μM, estimated from oocyte results) was “over 90%” and the inhibition at 10 µM ([3]; 10 μM, ACh application 5 min later, read-out: long term inhibition of α7 receptors) was 90%. For the same compound, the IC50 ([3]; ACh applied 5 min after compound, read-out: IC50, antagonism subsequent to agonist activity) was 2.3 ± 0.7 µM, the “Oocytes Antagonist” value [3] was “.08” and the “selectivity α7 over α4β2 (in words)” value [4] was “selectively activate α7 receptors over α4β2”. For the same compound, the Emax [4, 8] was 96%, the “α7 receptor activation (in words)” value ([4]; oocyte expression system) was “fully efficaciously” and the EC50 ([4]; oocytes, read-out: α7 EC50) was 6.2 ± 2.2 µM. For the same compound, the Emax ([4]; read-out: alpha7 activation: % response observed with 500 μM acetylcholine) was 96%.
